The results in this text go back to patent US20210030650A1, “USE OF A NOVEL COMPOSITION FOR PREVENTING OR SLOWING DOWN THE APPEARANCE OF UNSIGHTLY SIGNS RELATING TO THE PRESENCE OF EXCESS SEBUM” (SOCIETE D'EXPLOITATION DE PRODUITS POUR LES INDUSTRIES …, priority 2018, published 2021).

Where two headings read alike, the source gives them in different places.

Assay [1] has as its system sebocytes of the SEBO662AR line. The assay is described as follows: Overproduction of lipids by testosterone-stimulated sebocytes (Bodipy lipid droplet imaging, standardized by nuclei count). Format: cell-based. An excerpt:
The imbalance in the cutaneous microbiota occurs in particular when the proliferation of Propionibacterium acnes is observed. In this case also, Propionibacterium acnes induces inflammation of the skin, on the one hand by inducing the overproduction of lipids by sebocytes and, on the other hand, by producing a lipase which converts triglycerides into free fatty acids, which are irritating and chemotactic for neutrophils.
The effect of the composition (C1A) on the overproduction of lipids was studied on sebocytes of the SEBO662AR line (Bioalternatives line) sensitive to stimuli, such as testosterone, to produce lipids.
The sebocytes were first of all treated for 4 hours with the composition to be tested (or a positive reference). The testosterone was then added for 7 days to the culture medium, with renewal of the treatments and of the stimulation after 3 days. The formation of lipid droplets was detected by imaging using the Bodipy® fluorescent probe and the results were standardized by counting the nuclei with Hoechst staining.
The values are expressed as means+/−sem [standard error of the mean=standard deviation/root (number of values)].
% stimulation=100×[mean (cells+treatment)/mean (cells stimulated with testosterone)]
% inhibition=100×[mean (cells+treatment)−mean (cells stimulated with testosterone)/mean (untreated cells)−mean (cells stimulated with testosterone)]

Assay [2] has as its system lipase. As to the kind of experiment: Antilipase activity, in tubo method (1,2-diglyceride to glycerol, absorbance at 570 nm). The class given is biochemical. The conditions noted are these: for % inhibition of the lipase: Table 11 experiment. As for the experimental part: This involves studying the ability of a composition to […] and regulate the activity of the lipase enzyme by an in tubo method, said enzyme having an inflammatory action.
The samples in the evaluation test are placed in tubo in the presence of lipase and 1,2-diglyceride and the absorbance of the samples is measured with a spectrophotometer at the wavelength 570 nm as soon as they are prepared and then after 60 minutes of incubation at 37° C., under the same spectral conditions. By virtue of a range of glycerol, the lipase activity of the samples can be calculated, as well as the percentage of inhibition, according to the following formulae:
Lipase activity=(amount of glycerol formed between 0 and 60 minutes)/(60 minutes×sample volume)
Percentage of inhibition=100×[(lipase activity of the control group)−(lipase activity of the test product)]/(lipase activity of the control group).

Setting [3] is: Table 9, 1 nM testosterone, 0.006% compound.
Setting [4] is: Table 9, 1 nM testosterone, 0.012% compound.

Take `O=C(O)CC(O)C(=O)OC1(C(=O)O)CC(OC(=O)C=Cc2ccc(O)c(O)c2)C(OC(=O)C=Cc2ccc(O)c(O)c2)C(OC(=O)C=Cc2ccc(O)c(O)c2)C1` (stereo not drawn) [Compound of formula (Ia), 1-O-Maloyl-3,4,5-tri-O-caffeoylquinic acid]: the “Lipids, % change vs testosterone-stimulated cells” value in assay [1] (Table 9, 1 nM testosterone, 0.0012% compound) is on record as 21; in assay [1] (setting [3]), −34; in assay [1] (setting [4]), −29. Besides, the entries for the “Lipids, % inhibition” value in assay [1] (setting [3]) and in assay [1] (setting [4]) were 38% and 32%, respectively. For the same compound, the Lipase activity in assay [2] (Table 11, 0.00012% by weight, control 4.72) is reported as 4.65 +/− 0.03 mU/ml; in assay [2] (Table 11, 0.00024% by weight, control 4.72), 4.15 +/− 0.03 mU/ml; in assay [2] (Table 11, 0.0006% by weight, control 4.72), 2.16 +/− 0.07 mU/ml; in assay [2] (Table 11, 0.0012% by weight, control 4.72) it was 1.02 +/− 0.01 mU/ml. Also, the “% inhibition of the lipase” value in assay [2] (0.0006% by weight) turned out to be 54%; in assay [2] (0.0012% by weight), 78%.
Regarding `CC(O)CO` (stereo not drawn) [Propylene Glycol], the Lipase activity in assay [2] (Table 10, product at 1% by weight, 60 minutes at 37° C., control 4.21) is on record as 6.40 +/− 0.05 mU/m1.
Consider `O=C1O[C@H]([C@@H](O)CO)C(O)=C1O` [Vitamin C, reference compound], for which the Lipase activity in assay [2] (Table 10, positive reference, concentration not given, 60 minutes at 37° C., control 4.21) was 2.11 +/− 0.01 mU/m1; in assay [2] (Table 11, positive reference, concentration not given, control 4.72), 1.36 +/− 0.01 mU/ml.
In the case of `C[C@]12C=CC(=O)N[C@@H]1CC[C@@H]1[C@@H]2CC[C@]2(C)[C@@H](C(=O)Nc3cc(C(F)(F)F)ccc3C(F)(F)F)CC[C@@H]12` [dutasteride, reference compound], the inhibition at 1 µM in assay [1] (Table 8, cells stimulated with 1 nM testosterone, 1 μM dutasteride, read-out: Lipids (fluorescence intensity)/number of cells, % inhibition) was determined as 113%; in assay [1] (Table 9, 1 nM testosterone, 1 μM dutasteride, read-out: Lipids, % inhibition) it was 91%. The “Lipids (fluorescence intensity)/number of cells, % stimulation” value in assay [1] (Table 8, cells stimulated with 1 nM testosterone, 1 μM dutasteride, stimulated untreated cells = 100) is on record as 22%. The “Lipids, % change vs testosterone-stimulated cells” value in assay [1] (Table 9, 1 nM testosterone, 1 μM dutasteride) was −82.
